{
  "source": "patent US20090029983A1",
  "about": "“NOVEL HETEROCYCLIC COMPOUNDS HAVING ANTI-HBV ACTIVITY” (priority 2005, published 2009)",
  "data": [
    {"tested_on": "HBV", "experiment": "HBV screening assay (viral DNA in baculovirus-HBV transduced HepG2 cells)", "assay_type": "cell-based", "conditions": "Hepatitis B virus, HepG2, 72 h, read-out: EC50 (antiviral activity), HBV-transduced HepG2 cells, three days with compound, viral DNA by ELISA", "outline": "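HepG2 cells transduced with baculovirus carrying the HBV genome were grown 3 days at 37 °C with compound in EMEM/10% FBS; viral DNA from lysates captured by solid-phase hybridisation with digoxigenin probes and read by anti-digoxigenin HRP ELISA. EC50 from titration curves; CC50 from non-transduced HepG2 after 3 days by MTS viability.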", "units": {"EC50": "µM"}, "values": [
      {"compound": "COC(=O)c1ccc(NC(=S)N2Cc3nc4sc(C(N)=O)c(N)c4c(-c4cccs4)c3C2)cc1", "note": "[Compound 90, 4-[(3-Amino-2-carbaomyl-4-thiophen-2-yl-5,7-dihydro-1-thia-6,8-diaza-s-indacene-6-carbothioyl)-amino]benzoic acid methylester]", "EC50": "> 10"},
      {"compound": "NC(=O)c1sc2nc3c(c(-c4cccs4)c2c1N)CN(C(=S)NC1CC1)C3", "note": "[Compound 91, 3-Amino-6-cyclopropylthiocarbamoyl-4-thiophen-2-yl-6,7-dihydro-5H-1-thia-6,8-diaza-s-indacene-2-carboxylic acid amide]", "EC50": "1 to 10"},
      {"compound": "Cc1cc(C)cc(NC(=S)N2Cc3nc4sc(C(N)=O)c(N)c4c(-c4cccs4)c3C2)c1", "note": "[Compound 92, 3-Amino-6-(3,5-dimethyl-phenylthiopcarbamoyl)-4-thiophen-2-yl-6,7-dihydro-5H-1-thia-6,8-diaza-s-indacene-2-carboxylic acid amide]", "EC50": "> 10"},
      {"compound": "NC(=O)c1sc2nc3c(c(-c4cccs4)c2c1N)CN(C(=S)NCCN1CCOCC1)C3", "note": "[Compound 93, 3-Amino-6-(2-morpholin-4-yl-ethylthiocarbamoyl)-4-thiophen-2-yl-6,7-dihydro-5H-1-thia-6,8-diaza-s-indacene-2-c arboxylic acid amide]", "EC50": "> 10"},
      {"compound": "NC(=O)c1sc2nc3c(c(-c4cccs4)c2c1N)CN(C(=S)NCCCN1CCOCC1)C3", "note": "[Compound 94, 3-Amino-6-(3-morpholin-4-yl-propylthiocarbamoyl)-4-thiophen-2-yl-6,7-dihydro-5H-1-thia-6,8-diaza-s-indacene-2-carboxylic acid amide]", "EC50": "> 10"},
      {"compound": "NC(=O)c1sc2nc3c(c(-c4cccs4)c2c1N)CN(C1=NCCS1)C3", "note": "[Compound 95, 3-Amino-6-(4,5-dihydro-thiazol-2-yl)-4-thiophen-2-yl-6,7-dihydro-5H-1-thia-6,8-diaza-s-indacene-2-carboxylic acid amide]", "EC50": "< 1"},
      {"compound": "NC(=O)c1sc2nc3c(c(-c4cccs4)c2c1N)CN(C(=O)Nc1ccccc1)C3", "note": "[Compound 96, 3-Amino-4-thiophen-2-yl-5,7-dihydro-1-thia-6,8-diaza-s-indacene-2,6-dicarboxylicacid 2-amide 6-phenylamide]", "EC50": "> 10"},
      {"compound": "CCNC(=O)N1Cc2nc3sc(C(N)=O)c(N)c3c(-c3cccs3)c2C1", "note": "[Compound 98, 3-Amino-4-thiophen-2-yl-5,7-dihydro-1-thia-6,8-diaza-s-indacene-2,6-dicarboxylicacid 2-amide 6-ethylamide]", "EC50": "< 1"},
      {"compound": "NC(=O)c1sc2nc3c(c(-c4cccs4)c2c1N)CN(C(=S)Nc1ccsc1)C3", "note": "[Compound 100, 3-Amino-4-thiophen-2-yl-5,7-dihydro-1-thia-6,8-diaza-s-indacene-2,6-dicarboxylicacid 2-amide 5-thiophen-3-ylamide]", "EC50": "< 1"},
      {"compound": "NC(=O)c1sc2nc3c(c(-c4cccs4)c2c1N)CN(C(=O)Nc1ccc(N2CCOCC2)nc1)C3", "note": "[Compound 102, 3-Amino-4-thiophen-2-yl-5,7-dihydro-1-thia-6,8-diaza-s-indacene-2,6-dicarboxylicacid 2-amide 6-[(6-morpholin-4-yl-pyridin-3-yl)-amide]]", "EC50": "> 10"},
      {"compound": "NC(=O)c1sc2nc3c(c(-c4cccs4)c2c1N)CN(C(=O)CCl)C3", "note": "[Compound 104, 3-Amino-6-(2-chloro-acetyl)-4-thiophen-2-yl-6,7-dihydro-5H-1-thia-6,8-diaza-s-indacene-2-carboxylic acid amide]", "EC50": "1 to 10"},
      {"compound": "NC(=O)c1sc2nc3c(c(-c4cccs4)c2c1N)CN(C(=O)c1ccc(N2CCOCC2)nc1)C3", "note": "[Compound 105, 3-Amino-6-(6-morpholin-4-yl-pyridine-3-carbonyl)-4-thiophen-2-yl-6,7-dihydro-5H-1-thia-6,8-diaza-s-indacene-2-carboxylicacid amide]", "EC50": "> 10"},
      {"compound": "NC(=O)c1sc2nc3c(c(-c4cccs4)c2c1N)CCC1CCCCC31", "note": "(centres unmarked) [Compound 107, 8-Amino-7-thiophen-2-yl-1,2,3,4,4a,5,6,11b-octahydro-10-thia-11-aza-cyclopenta[b]phenanthrene-9-carboxylic acid amide]", "EC50": "> 10"}
    ]},
    {"tested_on": "HBV", "experiment": "not given", "conditions": "HBV treatment, background statement; cited from earlier work", "values": [
      {"compound": "CC(C)(C)C(=O)OCOP(=O)(COCCn1cnc2c(N)ncnc21)OCOC(=O)C(C)(C)C", "note": "[adefovir dipivoxil, 9-(2-((-bis((pivaloyloxy)methoxy)phosphinyl)methoxy)ethyl)adenine]", "sustained viral response rate": "below 20%"}
    ]}
  ]
}
